From ChEMBL document CHEMBL3868615, “Decahydrobenzoquinolin-5-one sigma receptor ligands: Divergent development of both sigma 1 and sigma 2 receptor selective examples” (Bioorg Med Chem Lett, 2016)

Tests used:
[1] = biological target: Kappa-type opioid receptor (Homo sapiens, UniProt P41145); assay: Displacement of [3H]U69593 from KOR (unknown origin) expressed in HEKT cells measured after 90 mins by microbeta scintillation counting method; format: cell-based
[2] = biological target: 5-hydroxytryptamine receptor 6 (Homo sapiens, UniProt P50406); assay: Displacement of [3H]LSD from human 5-HT6 receptor expressed in HEK cells measured after 90 mins by microbeta scintillation counting method; format: cell-based, HEK293
[3] = biological target: Muscarinic acetylcholine receptor M2 (Homo sapiens, UniProt P08172); assay: Binding affinity to human M2 receptor expressed in CHO cells measured after 90 mins by radioligand binding assay; format: cell-based
[4] = biological target: Sigma non-opioid intracellular receptor 1 (Cavia porcellus, UniProt Q60492); assay: Displacement of [3H]pentazocine from guinea pig sigma1 receptor measured after 90 mins by microbeta scintillation counting method
[5] = biological target: Sodium-dependent serotonin transporter (Homo sapiens, UniProt P31645); assay: Displacement of [3H]Citalopram from human SERT expressed in HEK cells measured after 90 mins by microbeta scintillation counting method; format: cell-based, HEK293
[6] = Displacement of [3H]Muscimol from GABAA receptor in rat brain measured after 90 mins by microbeta scintillation counting method; format: tissue-based
[7] = biological target: Sodium-dependent dopamine transporter (Homo sapiens, UniProt Q01959); assay: Displacement of [3H]WIN35428 from human DAT expressed in HEK cells measured after 90 mins by microbeta scintillation counting method; format: cell-based, HEK293
[8] = biological target: Delta-type opioid receptor (Homo sapiens, UniProt P41143); assay: Displacement of [3H]DADLE from human DOR expressed in HEK cells measured after 90 mins by microbeta scintillation counting method; format: cell-based, HEK293
[9] = biological target: D(4) dopamine receptor (Homo sapiens, UniProt P21917); assay: Displacement of [3H]N-methylspiperone from human D4 receptor measured after 90 mins by microbeta scintillation counting method
[10] = biological target: 5-hydroxytryptamine receptor 7 (Homo sapiens, UniProt P34969); assay: Displacement of [3H]LSD from human 5-HT7 receptor expressed in HEK cells measured after 90 mins by microbeta scintillation counting method; format: cell-based, HEK293
[11] = biological target: 5-hydroxytryptamine receptor 2B (Homo sapiens, UniProt P41595); assay: Displacement of [3H]LSD from human 5-HT2B receptor expressed in HEK cells measured after 90 mins by microbeta scintillation counting method; format: cell-based, HEK293
[12] = biological target: Sigma non-opioid intracellular receptor 1 (Cavia porcellus) (UniProt Q60492); details: 10 uM
[13] = biological target: Histamine H1 receptor (Homo sapiens, UniProt P35367); assay: Displacement of [3H]Pyrilamine from human H1 receptor expressed in HEK cells measured after 90 mins by microbeta scintillation counting method; format: cell-based, HEK293
[14] = biological target: 5-hydroxytryptamine receptor 1B (Homo sapiens, UniProt P28222); assay: Displacement of [3H]5-CT from human 5-HT1B receptor expressed in HEK cells measured after 90 mins by microbeta scintillation counting method; format: cell-based, HEK293
[15] = biological target: Alpha-2B adrenergic receptor (Homo sapiens, UniProt P18089); assay: Displacement of [3H]Rauwolscine from human Alpha2B receptor expressed in HEK-T cells measured after 90 mins by microbeta scintillation counting method; format: cell-based
[16] = test system: PC-12; assay: Selectivity ratio of Ki for sigma2 receptor in rat PC12 cells to Ki for guinea pig sigma1 receptor; format: cell-based
[17] = Displacement of [3H]DTG from sigma2 receptor in rat PC12 cells measured after 90 mins by microbeta scintillation counting method; format: cell-based; details: pc-12
[18] = biological target: Sodium-dependent noradrenaline transporter (Homo sapiens, UniProt P23975); assay: Displacement of [3H]Nisoxetine from human NET expressed in HEK cells measured after 90 mins by microbeta scintillation counting method; format: cell-based, HEK293
[19] = biological target: Alpha-2C adrenergic receptor (Homo sapiens, UniProt P18825); assay: Displacement of [3H]Rauwolscine from human Alpha2C receptor expressed in MDCK cells measured after 90 mins by microbeta scintillation counting method; format: cell-based
[20] = biological target: D(1B) dopamine receptor (Homo sapiens, UniProt P21918); assay: Displacement of [3H]SCH23390 from human D5 receptor expressed in HEK-T cells measured after 90 mins by microbeta scintillation counting method; format: cell-based
[21] = biological target: Alpha-2A adrenergic receptor (Homo sapiens, UniProt P08913); assay: Displacement of [3H]Rauwolscine from human Alpha2A receptor expressed in MDCK cells measured after 90 mins by microbeta scintillation counting method; format: cell-based
[22] = biological target: Muscarinic acetylcholine receptor M3 (Homo sapiens, UniProt P20309); assay: Binding affinity to human M3 receptor expressed in CHO cells measured after 90 mins by radioligand binding assay; format: cell-based
[23] = biological target: Alpha-1D adrenergic receptor (Homo sapiens, UniProt P25100); assay: Displacement of [3H]Prazosin from human Alpha1D receptor measured after 90 mins by microbeta scintillation counting method
[24] = biological target: 5-hydroxytryptamine receptor 2A (Homo sapiens, UniProt P28223); assay: Displacement of [3H]Ketanserin from 5-HT2A receptor (unknown origin) measured after 90 mins by microbeta scintillation counting method
[25] = biological target: D(3) dopamine receptor (Homo sapiens, UniProt P35462); assay: Displacement of [3H]N-methylspiperone from D3 receptor (unknown origin) expressed in HEK-T cells measured after 90 mins by microbeta scintillation counting method; format: cell-based
[26] = biological target: Mu-type opioid receptor (Homo sapiens, UniProt P35372); assay: Displacement of [3H]DAMGO from human MOR expressed in HEK cells after 90 mins by microbeta scintillation counting method; format: cell-based, HEK293
[27] = biological target: Histamine H4 receptor (Homo sapiens, UniProt Q9H3N8); assay: Displacement of [3H]Histamine from H4 receptor (unknown origin) measured after 90 mins by microbeta scintillation counting method
[28] = biological target: 5-hydroxytryptamine receptor 2C (Homo sapiens, UniProt P28335); assay: Displacement of [3H]Mesulergine from human 5-HT2C receptor expressed in Flp-IN HEK cells measured after 90 mins by microbeta scintillation counting method; format: cell-based, HEK293
[29] = biological target: T1, 5-hydroxytryptamine receptor 1A (Homo sapiens, UniProt P08908); assay: Displacement of [3H]Way100635 from human 5-HT1A receptor expressed in CHO cells measured after 90 mins by microbeta scintillation counting method; format: cell-based
T1 sequence (P08908 whole entry): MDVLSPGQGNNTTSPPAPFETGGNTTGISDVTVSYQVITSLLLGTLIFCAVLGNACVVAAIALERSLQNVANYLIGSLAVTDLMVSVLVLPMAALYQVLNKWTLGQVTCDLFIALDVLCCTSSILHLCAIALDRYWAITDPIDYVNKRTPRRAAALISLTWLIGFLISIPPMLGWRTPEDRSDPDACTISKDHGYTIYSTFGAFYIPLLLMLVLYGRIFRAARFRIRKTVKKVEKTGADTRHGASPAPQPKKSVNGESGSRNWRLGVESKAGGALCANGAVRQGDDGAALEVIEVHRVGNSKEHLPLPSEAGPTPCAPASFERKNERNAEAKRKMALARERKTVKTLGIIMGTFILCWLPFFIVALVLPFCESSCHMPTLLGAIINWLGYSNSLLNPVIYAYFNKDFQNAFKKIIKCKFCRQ

[30] = test system: PC-12; details: Rattus norvegicus, 10 uM
[31] = biological target: Muscarinic acetylcholine receptor M4 (Homo sapiens, UniProt P08173); assay: Binding affinity to human M4 receptor expressed in CHO cells measured after 90 mins by radioligand binding assay; format: cell-based
Sequence of Muscarinic acetylcholine receptor M4 (P08173 whole entry): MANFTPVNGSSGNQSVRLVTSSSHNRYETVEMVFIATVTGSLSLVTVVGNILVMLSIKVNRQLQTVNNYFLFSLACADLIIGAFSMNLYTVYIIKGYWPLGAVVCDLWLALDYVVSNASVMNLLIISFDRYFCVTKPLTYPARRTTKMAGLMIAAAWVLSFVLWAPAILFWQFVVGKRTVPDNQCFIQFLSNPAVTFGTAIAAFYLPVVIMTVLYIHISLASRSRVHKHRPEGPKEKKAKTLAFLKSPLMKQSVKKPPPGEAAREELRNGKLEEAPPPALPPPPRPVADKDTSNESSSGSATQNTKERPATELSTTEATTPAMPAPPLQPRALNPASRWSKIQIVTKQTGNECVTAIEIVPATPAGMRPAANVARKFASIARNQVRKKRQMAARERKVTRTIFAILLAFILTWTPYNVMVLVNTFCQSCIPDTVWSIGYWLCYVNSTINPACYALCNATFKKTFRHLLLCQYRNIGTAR

Sequence of D(4) dopamine receptor (P21917 whole entry): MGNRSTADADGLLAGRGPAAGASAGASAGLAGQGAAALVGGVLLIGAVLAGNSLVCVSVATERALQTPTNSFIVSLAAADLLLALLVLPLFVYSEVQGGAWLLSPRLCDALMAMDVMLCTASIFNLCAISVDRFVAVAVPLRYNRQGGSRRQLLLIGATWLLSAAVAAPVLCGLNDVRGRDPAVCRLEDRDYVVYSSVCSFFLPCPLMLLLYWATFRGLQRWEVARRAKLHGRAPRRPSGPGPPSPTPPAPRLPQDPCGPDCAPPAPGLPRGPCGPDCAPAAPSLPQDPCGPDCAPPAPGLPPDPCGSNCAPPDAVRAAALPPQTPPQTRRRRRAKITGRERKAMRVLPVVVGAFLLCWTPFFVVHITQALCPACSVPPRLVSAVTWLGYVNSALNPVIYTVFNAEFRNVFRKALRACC
Sequence of 5-hydroxytryptamine receptor 2C (P28335 whole entry): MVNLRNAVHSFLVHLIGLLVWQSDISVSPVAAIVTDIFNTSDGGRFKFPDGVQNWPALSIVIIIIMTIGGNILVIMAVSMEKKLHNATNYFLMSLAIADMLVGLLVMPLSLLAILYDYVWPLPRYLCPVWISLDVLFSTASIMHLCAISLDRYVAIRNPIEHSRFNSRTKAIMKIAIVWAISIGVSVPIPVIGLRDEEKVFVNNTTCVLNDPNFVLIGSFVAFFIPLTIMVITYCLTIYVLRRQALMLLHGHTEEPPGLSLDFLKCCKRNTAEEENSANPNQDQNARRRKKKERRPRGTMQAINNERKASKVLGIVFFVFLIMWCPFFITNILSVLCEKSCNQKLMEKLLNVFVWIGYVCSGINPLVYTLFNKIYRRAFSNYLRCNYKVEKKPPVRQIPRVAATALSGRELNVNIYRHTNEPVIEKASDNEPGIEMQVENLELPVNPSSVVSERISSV
Sequence of D(1B) dopamine receptor (P21918 whole entry): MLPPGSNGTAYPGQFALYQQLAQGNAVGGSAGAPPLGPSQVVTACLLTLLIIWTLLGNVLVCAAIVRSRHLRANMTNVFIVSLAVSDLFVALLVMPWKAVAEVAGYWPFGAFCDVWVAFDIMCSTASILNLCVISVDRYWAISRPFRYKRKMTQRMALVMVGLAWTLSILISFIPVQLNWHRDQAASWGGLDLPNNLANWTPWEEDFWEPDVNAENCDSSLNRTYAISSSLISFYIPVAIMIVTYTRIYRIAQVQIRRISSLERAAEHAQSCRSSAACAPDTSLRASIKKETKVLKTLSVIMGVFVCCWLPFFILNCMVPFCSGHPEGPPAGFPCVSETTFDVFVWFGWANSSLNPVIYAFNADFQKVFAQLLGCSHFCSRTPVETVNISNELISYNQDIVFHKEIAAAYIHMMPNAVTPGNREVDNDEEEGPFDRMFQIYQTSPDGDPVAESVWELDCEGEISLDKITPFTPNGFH
Sequence of 5-hydroxytryptamine receptor 2B (P41595 whole entry): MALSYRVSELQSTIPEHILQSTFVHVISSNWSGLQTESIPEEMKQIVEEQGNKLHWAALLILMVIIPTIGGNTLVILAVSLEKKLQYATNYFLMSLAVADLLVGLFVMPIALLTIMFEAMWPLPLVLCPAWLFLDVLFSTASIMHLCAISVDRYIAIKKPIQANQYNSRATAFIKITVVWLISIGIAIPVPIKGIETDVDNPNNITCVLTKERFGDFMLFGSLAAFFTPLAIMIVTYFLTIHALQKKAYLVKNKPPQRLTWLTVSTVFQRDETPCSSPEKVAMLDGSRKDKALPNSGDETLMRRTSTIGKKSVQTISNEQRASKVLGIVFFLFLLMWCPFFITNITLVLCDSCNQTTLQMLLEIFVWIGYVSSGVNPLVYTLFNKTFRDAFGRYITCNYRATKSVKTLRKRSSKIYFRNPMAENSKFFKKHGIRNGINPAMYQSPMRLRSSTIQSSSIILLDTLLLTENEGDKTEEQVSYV
Sequence of Muscarinic acetylcholine receptor M3 (P20309 whole entry): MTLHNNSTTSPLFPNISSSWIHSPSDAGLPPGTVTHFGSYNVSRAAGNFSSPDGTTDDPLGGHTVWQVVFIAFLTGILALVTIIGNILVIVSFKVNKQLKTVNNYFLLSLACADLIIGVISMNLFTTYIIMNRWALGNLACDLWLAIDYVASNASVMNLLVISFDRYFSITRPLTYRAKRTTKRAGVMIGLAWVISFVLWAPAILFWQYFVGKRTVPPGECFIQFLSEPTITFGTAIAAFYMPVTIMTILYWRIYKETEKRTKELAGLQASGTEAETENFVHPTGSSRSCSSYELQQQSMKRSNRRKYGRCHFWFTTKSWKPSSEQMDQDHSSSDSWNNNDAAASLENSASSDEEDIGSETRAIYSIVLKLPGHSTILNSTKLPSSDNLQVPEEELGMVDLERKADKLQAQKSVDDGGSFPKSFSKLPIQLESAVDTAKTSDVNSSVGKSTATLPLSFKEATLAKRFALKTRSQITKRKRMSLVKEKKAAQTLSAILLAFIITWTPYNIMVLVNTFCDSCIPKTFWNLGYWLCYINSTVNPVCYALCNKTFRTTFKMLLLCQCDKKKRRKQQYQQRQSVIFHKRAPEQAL
Sequence of 5-hydroxytryptamine receptor 6 (P50406 whole entry): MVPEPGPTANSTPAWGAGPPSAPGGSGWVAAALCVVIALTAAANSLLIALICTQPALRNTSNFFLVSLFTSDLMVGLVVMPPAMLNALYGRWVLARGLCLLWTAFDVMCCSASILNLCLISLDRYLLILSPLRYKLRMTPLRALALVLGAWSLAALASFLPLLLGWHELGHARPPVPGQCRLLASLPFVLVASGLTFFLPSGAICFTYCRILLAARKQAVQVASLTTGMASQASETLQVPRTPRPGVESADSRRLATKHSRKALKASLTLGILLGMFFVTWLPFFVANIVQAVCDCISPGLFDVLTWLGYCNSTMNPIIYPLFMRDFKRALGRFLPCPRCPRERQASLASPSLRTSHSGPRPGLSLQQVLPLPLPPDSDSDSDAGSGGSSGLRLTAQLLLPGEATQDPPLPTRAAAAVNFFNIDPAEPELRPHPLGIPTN
Sequence of Histamine H1 receptor (P35367 whole entry): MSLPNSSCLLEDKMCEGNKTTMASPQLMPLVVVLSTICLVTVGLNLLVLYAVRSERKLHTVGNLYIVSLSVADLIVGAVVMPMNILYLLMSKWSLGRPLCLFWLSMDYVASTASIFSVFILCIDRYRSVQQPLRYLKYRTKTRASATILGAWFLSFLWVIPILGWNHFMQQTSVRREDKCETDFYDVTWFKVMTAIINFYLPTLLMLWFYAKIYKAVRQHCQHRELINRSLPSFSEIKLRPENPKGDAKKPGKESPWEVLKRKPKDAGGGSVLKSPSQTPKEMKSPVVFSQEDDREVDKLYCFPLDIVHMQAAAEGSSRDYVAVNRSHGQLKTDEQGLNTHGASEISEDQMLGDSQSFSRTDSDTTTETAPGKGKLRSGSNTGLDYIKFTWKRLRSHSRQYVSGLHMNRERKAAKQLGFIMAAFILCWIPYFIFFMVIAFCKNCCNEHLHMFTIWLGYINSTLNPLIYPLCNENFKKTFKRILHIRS
Sequence of Histamine H4 receptor (Q9H3N8 whole entry): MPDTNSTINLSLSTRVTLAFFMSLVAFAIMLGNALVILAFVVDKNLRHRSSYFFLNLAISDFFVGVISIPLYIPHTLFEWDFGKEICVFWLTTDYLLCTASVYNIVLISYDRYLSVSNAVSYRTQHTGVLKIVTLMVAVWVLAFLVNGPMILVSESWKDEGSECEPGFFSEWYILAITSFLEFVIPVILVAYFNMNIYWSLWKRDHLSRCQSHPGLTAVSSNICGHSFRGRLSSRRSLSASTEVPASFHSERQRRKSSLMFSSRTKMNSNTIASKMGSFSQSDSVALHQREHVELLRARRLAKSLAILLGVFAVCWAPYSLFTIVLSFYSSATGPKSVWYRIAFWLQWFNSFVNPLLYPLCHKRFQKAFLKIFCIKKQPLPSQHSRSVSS
Sequence of Sodium-dependent noradrenaline transporter (P23975 whole entry): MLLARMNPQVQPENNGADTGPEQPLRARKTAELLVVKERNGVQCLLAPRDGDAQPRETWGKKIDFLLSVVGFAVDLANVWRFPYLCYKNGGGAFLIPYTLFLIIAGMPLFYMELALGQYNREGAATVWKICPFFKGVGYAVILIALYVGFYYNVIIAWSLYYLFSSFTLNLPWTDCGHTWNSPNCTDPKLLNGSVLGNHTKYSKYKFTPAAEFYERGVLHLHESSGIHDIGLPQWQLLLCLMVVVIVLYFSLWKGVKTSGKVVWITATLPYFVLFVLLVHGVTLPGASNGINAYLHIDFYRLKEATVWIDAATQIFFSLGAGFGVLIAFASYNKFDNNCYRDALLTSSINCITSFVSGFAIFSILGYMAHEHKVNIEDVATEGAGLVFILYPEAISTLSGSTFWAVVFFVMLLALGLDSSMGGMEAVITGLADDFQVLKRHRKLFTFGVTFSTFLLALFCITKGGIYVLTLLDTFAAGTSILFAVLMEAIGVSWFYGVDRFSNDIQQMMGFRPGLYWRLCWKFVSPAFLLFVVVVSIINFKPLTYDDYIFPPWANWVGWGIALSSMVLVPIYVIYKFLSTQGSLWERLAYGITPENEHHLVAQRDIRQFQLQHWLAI

Compound	Ki [1]	Ki [2]	Ki [3]	Ki [4]	Ki [5]	Ki [6]	Ki [7]	Ki [8]	Ki [9]	Ki [10]	Ki [11]	inhibition [12]	Ki [13]	Ki [14]	Ki [15]	Ratio Ki [16]	Ki [17]	Ki [18]	Ki [19]	Ki [20]	other results
CCCN1CC[C@H]2c3cc4ccc(C(F)(F)F)cc4nc3[C@H](CC)[C@H]3CCC[C@@H]1[C@@H]32	0.416 µM	> 10 µM	> 10 µM	0.423 µM	> 10 µM	> 10 µM	> 10 µM	> 10 µM	> 10 µM	> 10 µM	> 10 µM	> 50%	> 10 µM	> 10 µM	1.04 µM	0.04	0.015 µM	> 10 µM	1.04 µM	> 10 µM	Ki [21]: 1.59 µM; Ki [22]: > 10 µM; Ki [23]: > 10 µM; Ki [24]: > 10 µM; Ki [25]: > 10 µM; Ki [26]: 2.36 µM; Ki [27]: > 10 µM; Ki [28]: > 10 µM; Ki [29]: > 10 µM; inhibition [30]: > 50%; Ki [31]: > 10 µM
CN1CC[C@H]2CC(=O)[C@H](Cc3ccccc3)[C@H]3CCC[C@@H]1[C@H]23	> 10 µM	> 10 µM	> 10 µM	0.0015 to 0.002 µM	> 10 µM	> 10 µM	2.18 µM	> 10 µM	> 10 µM	> 10 µM	1.91 µM	> 50%	> 10 µM	> 10 µM	> 10 µM	98.7	0.148 µM	> 10 µM	> 10 µM	> 10 µM	Ki [21]: > 10 µM; Ki [22]: 0.661 µM; Ki [23]: > 10 µM; Ki [24]: > 10 µM; Ki [25]: > 10 µM; Ki [26]: > 10 µM; Ki [27]: > 10 µM; Ki [28]: 1.68 µM; Ki [29]: > 10 µM; inhibition [30]: > 50%; Ki [31]: > 10 µM
